Experimental data as given in PubChem BioAssay (NCI).
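Cultured in 96-well plates, cells were exposed to test compound for 48 hours across five concentrations. The concentration for 50% growth inhibition is given as GI50. TGI marks complete inhibition of growth.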

Experiments:
Experiment in all cases: growth of human tumour cells (NCI), 48 h
UACC-257 melanoma = system: UACC-257 melanoma
SK-MEL-28 melanoma = system: SK-MEL-28 melanoma
EKVX NSCLC = system: EKVX NSCLC
HL-60(TB) leukemia = system: HL-60(TB) leukemia
NCI-H226 lung = system: NCI-H226 lung
M14 melanoma = system: M14 melanoma
SNB-75 CNS = system: SNB-75 CNS
SF-539 CNS = system: SF-539 CNS
HCC-2998 colon = system: HCC-2998 colon
BT-549 breast = system: BT-549 breast

Row | Structure (SMILES) | TGI (UACC-257 melanoma) | TGI (SK-MEL-28 melanoma) | TGI (EKVX NSCLC) | TGI (HL-60(TB) leukemia) | TGI (NCI-H226 lung) | TGI (M14 melanoma) | TGI (SNB-75 CNS) | TGI (SF-539 CNS) | TGI (HCC-2998 colon) | GI50 (HCC-2998 colon) | GI50 (UACC-257 melanoma) | GI50 (SK-MEL-28 melanoma) | GI50 (EKVX NSCLC) | GI50 (M14 melanoma) | GI50 (HL-60(TB) leukemia) | GI50 (NCI-H226 lung) | GI50 (SNB-75 CNS) | GI50 (SF-539 CNS) | GI50 (BT-549 breast) | TGI (BT-549 breast)
1 | COc1ccc(-c2c(N)[n+]([O-])c3ccccc3[n+]2[O-])cc1OC | > 100 µM | > 100 µM | > 100 µM | > 100 µM | > 100 µM | > 100 µM | > 100 µM | > 100 µM | – | – | – | – | – | – | – | – | – | – | – | –
2 | Cc1c2c(cc3c(=O)ccn(CCN(C)C)c13)c(=O)ccn2CCN(C)C | 33.7 µM | 35.5 µM | 29 µM | 41.6 µM | 31.7 µM | 25 µM | 25.6 µM | 29.7 µM | 20.3 µM | – | – | – | – | – | – | – | – | – | – | –
3 | CC1C(=O)O[C@H]2C1CC[C@@]1(C)[C@H](O)CC[C@@]13C[C@]2(O)OO3 (some centres undefined) | > 100 µM | > 100 µM | – | > 100 µM | > 100 µM | > 100 µM | – | – | > 100 µM | – | – | – | – | – | – | – | – | – | – | –
4 | CCOP(=O)(OCC)C1=NC=CC=CC1n1c(-c2ccccc2)nn(CC)c1=O (centres undefined) | > 100 µM | > 100 µM | > 100 µM | > 100 µM | > 100 µM | – | – | > 100 µM | > 100 µM | – | – | – | – | – | – | – | – | – | – | –
5 | N#CC1CC2(C(=O)C1=O)c1ccccc1-c1ccccc12 (centres undefined) | > 100 µM | > 100 µM | > 100 µM | > 100 µM | > 100 µM | > 100 µM | > 100 µM | – | > 100 µM | – | – | – | – | – | – | – | – | – | – | –
6 | CCOC(=O)/C(=C\c1ccc[nH]1)C(=O)c1ccccc1 | > 100 µM | > 100 µM | > 100 µM | > 100 µM | > 100 µM | > 100 µM | > 100 µM | > 100 µM | > 100 µM | – | – | – | – | – | – | – | – | – | – | –
7 | O=c1c2cccnc2ncn1CCN1CCCC1 | – | > 100 µM | > 100 µM | – | > 100 µM | > 100 µM | > 100 µM | > 100 µM | > 100 µM | – | – | – | – | – | – | – | – | – | – | –
8 | CC/C=C/c1cc2cc[nH]c2c2c1C(C)C[C@@H]2C (some centres undefined) | > 100 µM | 84.4 µM | > 100 µM | 58.3 µM | 39 µM | 74.9 µM | 70.1 µM | 50.1 µM | – | – | – | – | – | – | – | – | – | – | – | –
9 | CSc1ncnc2c1CCN2 | > 100 µM | > 100 µM | > 100 µM | – | – | > 100 µM | – | – | > 100 µM | > 100 µM | > 100 µM | > 100 µM | > 100 µM | > 100 µM | – | – | – | – | – | –
10 | O=C(Nc1cccc(-n2cc(-c3ccncc3)c(-c3ccc(O)c(Cl)c3)n2)c1)Nc1cccc(C(F)(F)F)c1 | 5.48 µM | 6.18 µM | – | 7.49 µM | 9.02 µM | 3.94 µM | 9.75 µM | 5.18 µM | 37.5 µM | 4.3 µM | 2.35 µM | 1.95 µM | – | 1.74 µM | 2.83 µM | 2.52 µM | 1.43 µM | 1.64 µM | 1.72 µM | 4.08 µM
11 | COc1cc2c(c(OC)c1OC)-c1ccc(OC)c(=O)cc1[C@@H](N(C)C=O)CC2 | > 100 µM | > 100 µM | > 100 µM | 0.0329 µM | – | > 65.6 µM | 0.615 µM | 0.0247 µM | > 100 µM | – | – | – | – | – | – | – | – | – | – | –
12 | COc1cc(/C=C(\OC(C)=O)c2ccc3c(c2)OCO3)cc(OC)c1OC | 34 µM | 41.9 µM | 54.9 µM | > 100 µM | 30.7 µM | 39.4 µM | 46.7 µM | 38.8 µM | > 100 µM | > 100 µM | – | – | – | – | – | – | – | – | – | –
13 | CCC(C(=O)c1ccccc1)C(CCCC(=O)Nc1c(C)cccc1C)N=O (centres undefined) | > 100 µM | > 100 µM | > 100 µM | > 100 µM | > 100 µM | > 100 µM | > 100 µM | > 100 µM | > 100 µM | – | – | – | – | – | – | – | – | – | – | –
14 | Cc1ccc2c(c1)CNc1ccc(C)cc1CN2 | – | – | > 100 µM | > 100 µM | > 100 µM | > 100 µM | > 100 µM | > 100 µM | – | – | – | – | – | – | – | – | – | – | – | –
15 | O=C(NCc1ccncc1)C1COc2cc(-c3cc(=O)c4ccccc4o3)ccc2O1 (centres undefined) | > 100 µM | > 100 µM | > 100 µM | > 100 µM | – | > 100 µM | > 100 µM | > 100 µM | > 100 µM | – | – | – | – | – | – | – | – | – | – | –
16 | CN1CCN(c2ccc(C(=O)Nc3cc(-c4cccc(NS(=O)(=O)c5ccccc5)c4)[nH]n3)cc2)CC1 | 27 µM | 27 µM | – | 16.1 µM | 40 µM | 20.3 µM | 11.1 µM | 9.57 µM | 24.3 µM | 11.2 µM | 11.2 µM | 11.4 µM | – | 6.13 µM | 3.94 µM | 12.6 µM | 1.61 µM | 1.79 µM | 9.38 µM | 26.3 µM
17 | CC(C)C(=O)/C=C/c1ccc(Cl)c(Cl)c1 | 45.1 µM | 35.3 µM | 51.4 µM | 47 µM | – | 31.9 µM | – | 26 µM | 33.2 µM | – | – | – | – | – | – | – | – | – | – | –
18 | Cc1ccc(Oc2ccc([N+](=O)[O-])cc2[N+](=O)[O-])c(C)c1 | 99.6 µM | > 100 µM | > 100 µM | 65.2 µM | > 100 µM | > 100 µM | > 100 µM | > 100 µM | > 100 µM | – | – | – | – | – | – | – | – | – | – | –
19 | CC(C)c1ccc(NC(=S)NC(=O)c2ccccc2)cc1 | 37.5 µM | 48.3 µM | > 100 µM | 32.3 µM | – | 40.7 µM | – | > 100 µM | 39.4 µM | – | – | – | – | – | – | – | – | – | – | 60.6 µM
20 | C1COCCOCCOCCOCCO1.CC(=O)[CH-]C(C)=O.CC(=O)[CH-]C(C)=O.CC(=O)[CH-]C(C)=O.[V] | 25.3 µM | 23.9 µM | – | 42.2 µM | > 100 µM | 21 µM | 23 µM | 13.8 µM | 40.1 µM | 19.6 µM | 12.1 µM | – | – | 5.59 µM | 20.1 µM | 37.1 µM | 10.6 µM | 3.75 µM | – | –
21 | c1ccc(COC2(OCc3ccccc3)CC3OC2C2NN=NC32)cc1 (centres undefined) | 36.2 µM | 35.4 µM | – | 33.7 µM | 39.3 µM | 39.4 µM | 42.3 µM | 43.5 µM | > 10 µM | – | – | – | – | – | – | – | – | – | – | –
22 | CCSc1nnc(-c2ccc3ccccc3c2O)n1-c1ccc(Cl)cc1 | > 100 µM | > 100 µM | – | > 100 µM | > 100 µM | > 100 µM | > 100 µM | > 100 µM | > 100 µM | > 100 µM | > 100 µM | > 100 µM | – | 8.11 µM | 7.16 µM | 7.46 µM | 65.1 µM | > 100 µM | > 100 µM | > 100 µM
